The source of these data is patent publication US12662479B2 (Foghorn Therapeutics Inc., priority 2020, dated 2026).

A value given as a limit tells only on which side of the number the result lay.

For assay [1], the target named is T1, HiBit-BRG1 fusion protein (Homo sapiens, UniProt P51532).
T1 construct: expressed in transfected cells
As to the kind of experiment: HiBiT-BRG1 cell-based degradation assay (Nano-Glo HiBiT Lytic Detection, 24 h). The note with it: HeLa cells expressing HiBit-BRG1 and LgBit; for DC50: read-out: BRG1 HiBit Degradation IC50; for Dmax: HeLa, top dose 30 μM, read-out: BRG1 HiBit Degradation Maximum measured. In outline: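 Stable HeLa line expressing HiBiT-BRG1 and LgBiT, seeded at 5000 cells/well; luminescence read after lytic Nano-Glo HiBiT reagent and 10 min shaking at RT. % degradation normalised between DMSO (high control) and 2 μM reference BRM/BRG1 degrader (low control).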
On the technique in general: With HiBiT, luminescence reflects the tagged protein that the partner subunit can reach.

The target in another assay is T2, HiBit-BRM fusion protein (Homo sapiens, UniProt P51531).
T2 construct: expressed in transfected cells
T2 sequence (P51531 whole entry, the tested form may be a part): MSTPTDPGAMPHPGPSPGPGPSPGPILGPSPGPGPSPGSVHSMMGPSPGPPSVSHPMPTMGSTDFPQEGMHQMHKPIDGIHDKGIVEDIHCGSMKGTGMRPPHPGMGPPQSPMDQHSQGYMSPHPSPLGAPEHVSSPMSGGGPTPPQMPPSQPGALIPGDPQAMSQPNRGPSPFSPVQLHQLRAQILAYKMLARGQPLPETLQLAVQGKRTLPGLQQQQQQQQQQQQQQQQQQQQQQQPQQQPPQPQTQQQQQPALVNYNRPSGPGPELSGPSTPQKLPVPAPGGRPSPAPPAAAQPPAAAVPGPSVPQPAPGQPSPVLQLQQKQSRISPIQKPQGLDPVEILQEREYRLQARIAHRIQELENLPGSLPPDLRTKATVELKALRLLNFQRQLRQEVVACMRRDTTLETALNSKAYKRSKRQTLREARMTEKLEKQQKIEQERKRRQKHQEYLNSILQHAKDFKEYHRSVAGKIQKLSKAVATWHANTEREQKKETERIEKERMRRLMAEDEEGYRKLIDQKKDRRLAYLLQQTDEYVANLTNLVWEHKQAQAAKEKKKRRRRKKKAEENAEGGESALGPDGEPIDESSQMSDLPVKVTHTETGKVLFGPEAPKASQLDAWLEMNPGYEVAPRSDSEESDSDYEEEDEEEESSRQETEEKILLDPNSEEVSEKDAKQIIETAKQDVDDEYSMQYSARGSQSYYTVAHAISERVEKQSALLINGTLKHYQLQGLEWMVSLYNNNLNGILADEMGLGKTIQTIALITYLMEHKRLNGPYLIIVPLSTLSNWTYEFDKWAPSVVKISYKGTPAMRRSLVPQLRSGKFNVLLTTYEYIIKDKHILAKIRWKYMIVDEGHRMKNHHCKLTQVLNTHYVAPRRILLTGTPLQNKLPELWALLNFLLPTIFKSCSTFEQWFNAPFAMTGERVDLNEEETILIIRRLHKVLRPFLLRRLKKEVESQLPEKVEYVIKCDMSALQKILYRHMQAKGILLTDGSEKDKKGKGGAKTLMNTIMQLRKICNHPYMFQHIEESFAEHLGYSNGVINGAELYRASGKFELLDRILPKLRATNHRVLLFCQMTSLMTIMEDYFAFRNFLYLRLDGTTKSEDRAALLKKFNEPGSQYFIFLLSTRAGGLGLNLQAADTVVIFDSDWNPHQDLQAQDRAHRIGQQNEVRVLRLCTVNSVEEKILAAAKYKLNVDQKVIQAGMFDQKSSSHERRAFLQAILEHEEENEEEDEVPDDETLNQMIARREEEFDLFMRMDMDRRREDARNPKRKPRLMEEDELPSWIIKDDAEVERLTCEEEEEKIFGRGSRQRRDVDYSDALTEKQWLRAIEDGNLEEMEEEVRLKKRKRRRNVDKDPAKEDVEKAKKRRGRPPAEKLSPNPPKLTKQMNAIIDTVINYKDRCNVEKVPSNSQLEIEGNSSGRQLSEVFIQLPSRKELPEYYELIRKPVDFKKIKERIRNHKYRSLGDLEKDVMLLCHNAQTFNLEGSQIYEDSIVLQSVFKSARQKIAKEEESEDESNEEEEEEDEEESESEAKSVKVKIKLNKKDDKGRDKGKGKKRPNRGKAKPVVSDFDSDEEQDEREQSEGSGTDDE
As to the kind of experiment: HiBiT-BRM cell-based degradation assay (Nano-Glo HiBiT Lytic Detection, 24 h). The following applies: HeLa cells expressing HiBiT-BRM; for DC50: read-out: BRM HiBit Degradation IC50; for BRM HiBit Degradation Maximum measured: top dose 30 μM. The procedure, abridged:
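HeLa cells stably expressing HiBiT-BRM were dosed with compounds (10-point 3-fold dilutions, 30 μM final top dose, duplicate) for 24 h. HiBiT signal was read by lytic LgBiT complementation luminescence. Percent degradation was normalised to DMSO (high control) and 2 μM of a reference BRM/BRG1 degrader (low control).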

T1 sequence (P51532 whole entry, the tested form may be a part): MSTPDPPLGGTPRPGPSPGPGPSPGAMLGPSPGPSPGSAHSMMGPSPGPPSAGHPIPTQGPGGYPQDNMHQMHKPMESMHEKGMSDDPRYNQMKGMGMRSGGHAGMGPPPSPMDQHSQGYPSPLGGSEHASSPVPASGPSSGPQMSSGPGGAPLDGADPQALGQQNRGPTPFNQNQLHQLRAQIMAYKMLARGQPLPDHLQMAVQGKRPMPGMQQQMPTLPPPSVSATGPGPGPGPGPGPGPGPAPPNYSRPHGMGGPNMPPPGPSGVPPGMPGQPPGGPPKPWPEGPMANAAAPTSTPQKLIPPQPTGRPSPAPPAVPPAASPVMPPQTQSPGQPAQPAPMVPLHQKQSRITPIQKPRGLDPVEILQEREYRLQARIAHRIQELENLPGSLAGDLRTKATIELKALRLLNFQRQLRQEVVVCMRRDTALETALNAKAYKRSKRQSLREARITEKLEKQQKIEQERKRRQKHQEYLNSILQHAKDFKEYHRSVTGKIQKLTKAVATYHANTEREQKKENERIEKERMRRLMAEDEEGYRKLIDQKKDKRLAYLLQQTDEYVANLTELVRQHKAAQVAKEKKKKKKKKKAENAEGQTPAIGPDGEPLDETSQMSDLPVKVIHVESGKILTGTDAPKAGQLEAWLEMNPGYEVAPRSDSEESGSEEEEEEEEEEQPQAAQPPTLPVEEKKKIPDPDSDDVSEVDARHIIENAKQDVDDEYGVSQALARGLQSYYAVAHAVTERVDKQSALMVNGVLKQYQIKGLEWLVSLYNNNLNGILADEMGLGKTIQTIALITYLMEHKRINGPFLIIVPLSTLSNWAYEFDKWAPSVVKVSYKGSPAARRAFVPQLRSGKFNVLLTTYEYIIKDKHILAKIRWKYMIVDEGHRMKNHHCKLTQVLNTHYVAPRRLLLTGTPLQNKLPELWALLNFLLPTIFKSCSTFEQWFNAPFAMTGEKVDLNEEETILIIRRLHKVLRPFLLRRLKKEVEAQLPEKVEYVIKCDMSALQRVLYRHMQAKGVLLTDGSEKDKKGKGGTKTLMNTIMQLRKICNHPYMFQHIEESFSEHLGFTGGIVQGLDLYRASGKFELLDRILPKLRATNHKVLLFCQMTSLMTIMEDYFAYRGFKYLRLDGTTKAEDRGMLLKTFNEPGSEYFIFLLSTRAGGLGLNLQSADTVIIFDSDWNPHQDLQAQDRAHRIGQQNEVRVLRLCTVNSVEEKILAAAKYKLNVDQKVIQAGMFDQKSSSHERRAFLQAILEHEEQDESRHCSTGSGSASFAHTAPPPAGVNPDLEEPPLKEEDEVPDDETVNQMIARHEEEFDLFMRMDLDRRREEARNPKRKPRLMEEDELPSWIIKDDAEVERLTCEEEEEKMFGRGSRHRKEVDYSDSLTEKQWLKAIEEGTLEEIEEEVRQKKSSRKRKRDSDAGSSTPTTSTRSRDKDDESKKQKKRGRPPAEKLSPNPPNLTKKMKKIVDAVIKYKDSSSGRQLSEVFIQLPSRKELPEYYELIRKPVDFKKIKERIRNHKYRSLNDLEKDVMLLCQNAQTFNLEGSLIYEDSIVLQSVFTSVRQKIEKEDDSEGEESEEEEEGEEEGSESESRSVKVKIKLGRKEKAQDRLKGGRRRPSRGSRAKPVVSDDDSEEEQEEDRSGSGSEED

Take `CS(=O)(=O)n1ccc(C(=O)N[C@@H](CCOCCCC(=O)NCCOCc2cccc(COCCOc3ccc4c(c3)C(=O)N(C3CCC(=O)NC3=O)C4=O)c2)C(=O)Nc2nc(-c3ccccc3)cs2)c1` (stereo partly drawn) [Compound 261, (2S)-4-(3-[[2-([3-[(2-[[2-(2,6-dioxopiperidin-3-yl)-1,3-dioxoisoindol-5-yl]oxy]ethoxy)methyl]phenyl]methoxy)ethyl]carbamoyl]propoxy)-2-[(1-methanesulfonylpyrrol-3-yl)formamido]-N-(4-phenyl-1,3-thiazol-2-yl)butanamide]: in assay [1], the DC50 was > 10 µM and the Dmax is < 50%. At HiBit-BRM fusion protein, the DC50 was > 10 µM and the “BRM HiBit Degradation Maximum measured” value is “C (‘C’ = Maximum degradation <50%)”.
Regarding `CS(=O)(=O)n1ccc(C(=O)N[C@@H](CCOCCCC(=O)N2CCC3(CC2)CC(Oc2ccc4c(c2)C(=O)N(C2CCC(=O)NC2=O)C4=O)C3)C(=O)Nc2nc(-c3ccccc3)cs2)c1` (stereo partly drawn) [Compound 262, (2S)-4-[4-(2-[[2-(2,6-dioxopiperidin-3-yl)-1,3-dioxoisoindol-5-yl]oxy]-7-azaspiro[3.5]nonan-7-yl)-4-oxobutoxy]-2-[(1-methanesulfonylpyrrol-3-yl)formamido]-N-(4-phenyl-1,3-thiazol-2-yl)butanamide], in assay [1], the DC50 is > 10 µM and the Dmax was < 50%. Besides, on HiBit-BRM fusion protein, the DC50 is > 10 µM and the “BRM HiBit Degradation Maximum measured” value was “C (‘C’ = Maximum degradation <50%)”.
Regarding `CS(=O)(=O)n1ccc(C(=O)N[C@@H](CCOCCCC(=O)N2CCN(CCCC#Cc3ccc4c(c3)C(=O)N(C3CCC(=O)NC3=O)C4=O)CC2)C(=O)Nc2nc(-c3ccccc3)cs2)c1` (stereo partly drawn) [Compound 263, (2S)-4-[4-(4-[5-[2-(2,6-dioxopiperidin-3-yl)-1,3-dioxoisoindol-5-yl]pent-4-yn-1-yl]piperazin-1-yl)-4-oxobutoxy]-2-[(1-methanesulfonylpyrrol-3-yl)formamido]-N-(4-phenyl-1,3-thiazol-2-yl)butanamide; formic acid], in assay [1], the DC50 is > 10 µM and the Dmax is < 50%. Besides, at HiBit-BRM fusion protein, the DC50 is > 10 µM and the “BRM HiBit Degradation Maximum measured” value is “C (‘C’ = Maximum degradation <50%)”.
For the compound `Cc1ncsc1-c1ccc(CNC(=O)[C@@H]2C[C@@H](O)CN2C(=O)[C@@H](NC(=O)CCCCC(=O)NCCCC[C@H](NC(=O)c2ccn(S(C)(=O)=O)c2)C(=O)Nc2nc(-c3ccccc3)cs2)C(C)(C)C)cc1` [Compound 264, N-[(2S)-1-[(2S,4R)-4-hydroxy-2-([[4-(4-methyl-1,3-thiazol-5-yl)phenyl]methyl]carbamoyl)pyrrolidin-1-yl]-3,3-dimethyl-1-oxobutan-2-yl]-N-[(5S)-5-[(1-methanesulfonylpyrrol-3-yl)formamido]-5-[(4-phenyl-1,3-thiazol-2-yl)carbamoyl]pentyl]hexanediamide], in assay [1], the DC50 is > 10 µM and the Dmax is < 50%. Moreover, at HiBit-BRM fusion protein, the DC50 was > 10 µM and the “BRM HiBit Degradation Maximum measured” value was “C (‘C’ = Maximum degradation <50%)”.
Take `Cc1ncsc1-c1ccc(CNC(=O)[C@@H]2C[C@@H](O)CN2C(=O)[C@@H](NC(=O)CCCCCCCCCCC(=O)NCCCC[C@H](NC(=O)c2ccn(S(C)(=O)=O)c2)C(=O)Nc2nc(-c3ccccc3)cs2)C(C)(C)C)cc1` [Compound 265]: in assay [1], the DC50 was > 10 µM and the Dmax is < 50%. For the same compound, on HiBit-BRM fusion protein, the DC50 was > 10 µM and the “BRM HiBit Degradation Maximum measured” value was “C (‘C’ = Maximum degradation <50%)”.
Regarding `Cc1ncsc1-c1ccc(CNC(=O)[C@@H]2C[C@@H](O)CN2C(=O)[C@@H](NC(=O)CCCCCCC(=O)NCCCC[C@H](NC(=O)c2ccn(S(C)(=O)=O)c2)C(=O)Nc2nc(-c3ccccc3)cs2)C(C)(C)C)cc1` [Compound 266, N′-[(2S)-1-[(2S,4R)-4-hydroxy-2-([[4-(4-methyl-1,3-thiazol-5-yl)phenyl]methyl]carbamoyl)pyrrolidin-1-yl]-3,3-dimethyl-1-oxobutan-2-yl]-N-[(5S)-5-[(1-methanesulfonylpyrrol-3-yl)formamido]-5-[(4-phenyl-1,3-thiazol-2-yl)carbamoyl]pentyl]octanediamide], in assay [1], the DC50 was > 10 µM and the Dmax was < 50%. Moreover, at HiBit-BRM fusion protein, the DC50 is > 10 µM and the “BRM HiBit Degradation Maximum measured” value is reported as “C (‘C’ = Maximum degradation <50%)”.
For `Cc1ncsc1-c1ccc(CNC(=O)[C@@H]2C[C@@H](O)CN2C(=O)[C@@H](NC(=O)CCCCCCCCCCCCC(=O)NCCCC[C@H](NC(=O)c2ccn(S(C)(=O)=O)c2)C(=O)Nc2nc(-c3ccccc3)cs2)C(C)(C)C)cc1` [Compound 267, N-[(2S)-1-[(2S,4R)-4-hydroxy-2-([[4-(4-methyl-1,3-thiazol-5-yl)phenyl]methyl]carbamoyl)pyrrolidin-1-yl]-3,3-dimethyl-1-oxobutan-2-yl]-N-[(5S)-5-[(1-methanesulf-onylpyrrol-3-yl)formamido]-5-[(4-phenyl-1,3-thiazol-2-yl)carbamoyl]pentyl]tetradecanediamide], in assay [1], the DC50 is > 10 µM and the Dmax was < 50%. Besides, on HiBit-BRM fusion protein, the DC50 is > 10 µM and the “BRM HiBit Degradation Maximum measured” value was “C (‘C’ = Maximum degradation <50%)”.
For the compound `Cc1ncsc1-c1ccc(CNC(=O)[C@@H]2C[C@@H](O)CN2C(=O)[C@@H](NC(=O)CCCCCCCCC(=O)NCCCC[C@H](NC(=O)c2ccn(S(C)(=O)=O)c2)C(=O)Nc2nc(-c3ccccc3)cs2)C(C)(C)C)cc1` [Compound 268], in assay [1], the DC50 was > 10 µM and the Dmax was < 50%. Further, at HiBit-BRM fusion protein, the DC50 was > 10 µM and the “BRM HiBit Degradation Maximum measured” value is “C (‘C’ = Maximum degradation <50%)”.
Consider `CS(=O)(=O)n1ccc(C(=O)N[C@@H](CCCCNC(=O)C2CCN(CCOc3ccc4c(c3)C(=O)N(C3CCC(=O)NC3=O)C4=O)CC2)C(=O)Nc2nc(-c3ccccc3)cs2)c1` (some centres unmarked) [Compound 269], for which, in assay [1], the DC50 was > 10 µM and the Dmax was < 50%. For the same compound, on HiBit-BRM fusion protein, the DC50 is > 10 µM and the “BRM HiBit Degradation Maximum measured” value is “C (‘C’ = Maximum degradation <50%)”.
Consider `CS(=O)(=O)n1ccc(C(=O)N[C@@H](CCOCCCC(=O)NCCOc2cccc(OCCNc3cccc4c3C(=O)N(C3CCC(=O)NC3=O)C4=O)c2)C(=O)Nc2nc(-c3ccccc3)cs2)c1` (stereo partly drawn) [Compound 270, (2S)-4-[3-([2-[3-(2-[[2-(2,6-dioxopiperidin-3-yl)-1,3-dioxoisoindol-4-yl]amino]ethoxy)phenoxy]ethyl]carbamoyl)propoxy]-2-[(1-methanesulfonylpyrrol-3-yl)formamido]-N-(4-phenyl-1,3-thiazol-2-yl)butanamide], for which, in assay [1], the DC50 is > 10 µM and the Dmax was < 50%. At HiBit-BRM fusion protein, the DC50 was > 10 µM and the “BRM HiBit Degradation Maximum measured” value was “C (‘C’ = Maximum degradation <50%)”.
Consider `CS(=O)(=O)n1ccc(C(=O)N[C@@H](CCOCCCC(=O)NCCCC#Cc2ccc3c(c2)C(=O)N(C2CCC(=O)NC2=O)C3=O)C(=O)Nc2nc(-c3ccccc3)cs2)c1` (stereo partly drawn) [Compound 271, (2S)-4-[3-([5-[2-(2,6-dioxopiperidin-3-yl)-1,3-dioxoisoindol-5-yl]pent-4-yn-1-yl]carbamoyl)propoxy]-2-[(1-methanesulfonylpyrrol-3-yl)formamido]-N-(4-phenyl-1,3-thiazol-2-yl)butanamide], for which, in assay [1], the DC50 is > 10 µM and the Dmax was < 50%. Moreover, on HiBit-BRM fusion protein, the DC50 was > 10 µM and the “BRM HiBit Degradation Maximum measured” value is “C (‘C’ = Maximum degradation <50%)”.
